Laboratory results taken from PMC12518634, “The noncanonical function of liver-type phosphofructokinase potentiates the efficacy of HDAC inhibitors in cancer” (Signal Transduction and Targeted Therapy, 2025).
Where two headings read alike, the source gives them in different places.

What was measured:
HuCCT1 xenografts = assay: Cell-derived xenograft tumor growth; assay type: in vivo; settings: mice xenografted with PFKL low-expressed HuCCT1 cells; n = 5 mice per group; Fig. 2b, c
Protocol: (§1) For cell-derived xenograft (CDX) models, tumor cells were resuspended in saline and combined with an equal volume of Matrigel. A total of 1 × 10^6 cells in a 0.1 ml mixture were injected subcutaneously into the right flank of 6-week-old male nude mice. Once the tumor volume reached approximately 100 mm³, the mice were randomly grouped and treated with drugs or saline. The tumor volume was measured every 3 days and calculated via the following formula: tumor volume = (length × width^2) × 0.5. When the tumor volume reached 1500 mm³, the mice were euthanized via CO2 asphyxiation. The tumor tissues were harvested for further study.

1405R3 xenografts = assay: Cell-derived xenograft tumor growth; assay type: in vivo; settings: mice xenografted with PFKL low-expressed 1405R3 cells; n = 5 mice per group; Fig. 2b, c
Protocol: as §1

TFK1 xenografts = assay: Cell-derived xenograft tumor growth; assay type: in vivo; settings: mice xenografted with PFKL high-expressed TFK1 cells; n = 5 mice per group; Fig. 2b, c
Protocol: as §1

783C-6 xenografts = assay: Cell-derived xenograft tumor growth; assay type: in vivo; settings: mice xenografted with PFKL high-expressed 783C-6 cells, n = 5 mice per group, Fig. 2b
Protocol: as §1

SK-CHA-1 xenografts = assay: Cell-derived xenograft tumor growth; assay type: in vivo; settings: mice xenografted with PFKL high-expressed SK-CHA-1 cells; n = 5 mice per group; Fig. 2b, c
Protocol: as §1

HuCCT1 cells = assay: Cell viability assay (CellTiter-Glo, 72 h), GI50; assay type: cell-based; settings: Homo sapiens
Protocol: (§2) Cell viability was assessed using the CellTiter-Glo luminescent cell viability assay (Vazyme, DD1101) following the manufacturer’s instructions. Briefly, 5000 cells per well were seeded into a 96-well white bottom permeable plate. Different concentrations of drugs were added to each well. After 72 h of treatment, a mixture of CellTier reagent and serum-free culture medium was prepared at a 1:1 ratio, and 100 μL of the mixture was added to each well. After incubation at 37 °C for 15 min, the luminescence was measured using a microplate reader (Synergy H1, Biotek). All the experiments were conducted in triplicate. Cell viability (relative luminescence) was defined as the luminescence of the drug treatment relative to that of the vehicle control.

RBE cells = assay: Cell viability assay (CellTiter-Glo, 72 h), GI50; assay type: cell-based; settings: Homo sapiens, Fig. 1b
Protocol: as §2

SK-CHA-1 cells = assay: Cell viability assay (CellTiter-Glo, 72 h), GI50; assay type: cell-based; settings: Homo sapiens, Fig. 1b
Protocol: as §2

783C-6 cells = assay: Cell viability assay (CellTiter-Glo, 72 h), GI50; assay type: cell-based; settings: Homo sapiens
Protocol: as §2

1405R3 cells = assay: Cell viability assay (CellTiter-Glo, 72 h), GI50; assay type: cell-based; settings: Homo sapiens, Fig. 1b
Protocol: as §2

CC56 PDX tumors = assay: CCA patient-derived xenograft tumor growth; assay type: in vivo; settings: n = 5 mice per group, Fig. 2d, e
From the text: (§3) For patient-derived xenograft (PDX) models, fresh tumor samples were cut into small pieces of approximately 1 mm³ and subcutaneously transplanted into the flanks of NSG mice (P1 generation). After 2 to 3 months of tumor growth, the established PDX tumors were transplanted into subsequent generations (P2-Pn) under the skin of nude or NSG mice. When the tumors reached approximately 100 mm^3, the mice were randomly allocated to different groups and treated with HDAC inhibitors or saline. Tumor volume calculation, euthanasia of the mice, and specimen preparation followed the procedures of the CDX model.

CC51 PDX tumors = assay: CCA patient-derived xenograft tumor growth; assay type: in vivo; settings: n = 5 mice per group, Fig. 2d, e
From the text: as §3

CC52 PDX tumors = assay: CCA patient-derived xenograft tumor growth; assay type: in vivo; settings: n = 5 mice per group, Fig. 2d, e
From the text: as §3

CC57 PDX tumors = assay: CCA patient-derived xenograft tumor growth; assay type: in vivo; settings: n = 5 mice per group, Fig. 2d, e
From the text: as §3

CC16 PDX tumors = assay: CCA patient-derived xenograft tumor growth; assay type: in vivo; settings: n = 5 mice per group, Fig. 2d, e
From the text: as §3

CC11 PDX tumors = assay: CCA patient-derived xenograft tumor growth; assay type: in vivo; settings: n = 5 mice per group, Fig. 2d, e
From the text: as §3

1405R3 = assay: High-throughput drug screen, CellTiter-Glo viability, 72 h; assay type: cell-based, human; set-up: AUC: scale not given here; settings: for EC50: Homo sapiens, 72 h
Procedure, shortened: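 Responses are drug sensitivity scores (efficacy cutoff ≥10), fitted from CellTiter-Glo luminescence. Each drug was given at five concentrations (10 to 0.001 μM, tenfold steps) in duplicate for 72 h. Cells were plated at 3000/well 24 h before dosing.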

783C-6 = assay: as above; assay type: cell-based, human; set-up: AUC: scale not given here; settings: for EC50: Homo sapiens, 72 h
Procedure, shortened: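 Cholangiocarcinoma cells were seeded at 3000/well in 384-well plates and dosed after 24 h. Drugs were tested at 10, 1, 0.1, 0.01 and 0.001 μM in duplicate for 72 h, with viability read by CellTiter-Glo luminescence.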

[1] = HuCCT-1, 72 h, HuCCT1, 72 h, CellTiter-Glo, Fig. 1b
[2] = HuCCT-1, 72 h, HuCCT1 vector, 72 h, Fig. 1j
[3] = HuCCT-1, 72 h, HuCCT1 with PFKL overexpression (ovPFKL), 72 h, Fig. 1j
[4] = 783C-6 after interference with LHCGR si-1, Fig. 1f
[5] = 783C-6 after interference with LHCGR si-2, Fig. 1f
[6] = 783C-6 after interference with NFIA si-1, Fig. 1f
[7] = 783C-6 after interference with NFIA si-2, Fig. 1f
[8] = 783C-6 after interference with PFKFB1 si-1, Fig. 1f
[9] = 783C-6 after interference with PFKFB1 si-2, Fig. 1f
[10] = 783C-6 after interference with PFKL si-1, Fig. 1f
[11] = 783C-6 after interference with PFKL si-2, Fig. 1f
[12] = 783C-6 expressing sgNC, Fig. 1g
[13] = 783C-6 expressing sgPFKL-1, Fig. 1g
[14] = 783C-6 expressing sgPFKL-2, Fig. 1g

| Compound | tumor growth (HuCCT1 xenografts) | tumor growth (1405R3 xenografts) | tumor growth (TFK1 xenografts) | tumor growth (783C-6 xenografts) | tumor growth (SK-CHA-1 xenografts) | GI50 (HuCCT1 cells; [1]) [nM] | GI50 (HuCCT1 cells; [2]) [nM] | GI50 (HuCCT1 cells; [3]) [nM] | GI50 (RBE cells) [nM] | GI50 (SK-CHA-1 cells) [nM] | GI50 (783C-6 cells; 783C-6, CellTiter-Glo, Fig. 1b) [nM] | GI50 (783C-6 cells; [4]) [nM] | GI50 (783C-6 cells; [5]) [nM] | GI50 (783C-6 cells; [6]) [nM] | GI50 (783C-6 cells; [7]) [nM] | GI50 (783C-6 cells; [8]) [nM] | GI50 (783C-6 cells; [9]) [nM] | GI50 (783C-6 cells; [10]) [nM] | GI50 (783C-6 cells; [11]) [nM] | GI50 (783C-6 cells; [12]) [nM] | other results |
| --- | --- | --- | --- | --- | --- | --- | --- | --- | --- | --- | --- | --- | --- | --- | --- | --- | --- | --- | --- | --- | --- |
| Cc1[nH]c2ccccc2c1CCNCc1ccc(/C=C/C(=O)NO)cc1 [Panobinostat, panobinostat] | limited efficacy | limited efficacy | markedly inhibited tumor growth | markedly inhibited tumor growth | markedly inhibited tumor growth | 244 | 285 | 31.2 | 276 | 72.2 | 37.4 | 48 | 65.5 | 56.6 | 51.5 | 59 | 50.5 | 590 | 276 | 52.4 | GI50 (783C-6 cells; [13]): 467 nM; GI50 (783C-6 cells; [14]): 250 nM; GI50 (783C-6 cells; 783C-6 siNC, Fig. 1f): 61.4 nM; GI50 (1405R3 cells): 162 nM; PDX tumor growth compared to the control group (CC56 PDX tumors): no significant disparities; PDX tumor growth compared to the control group (CC51 PDX tumors): no significant disparities; PDX tumor growth compared to the control group (CC52 PDX tumors): notably attenuated the growth; PDX tumor growth compared to the control group (CC57 PDX tumors): notably attenuated the growth; PDX tumor growth compared to the control group (CC16 PDX tumors): notably attenuated the growth; PDX tumor growth compared to the control group (CC11 PDX tumors): notably attenuated the growth; AUC (1405R3; 1405R3 DSRT analysis, area under the dose-response curve): 218.4; DSS (1405R3; 1405R3 DSRT analysis, drug sensitivity score): 25.4; MIN (1405R3; 1405R3 DSRT analysis, lower asymptote of fitted dose-response curve): 0; EC50 (1405R3; 1405R3 DSRT analysis, CellTiter-Glo viability, fitted dose-response curve, Min.Conc.tested 1, Max.Conc.tested 10000, GI50, read-out: EC50): 64.9 nM; DSS (783C-6; 783C-6 cells, DSS of DSRT analysis): 31.3; AUC (783C-6; 783C-6 cells, area under the dose-response curve): 262.4; MIN (783C-6; 783C-6 cells, minimum of dose-response curve): 0.3; EC50 (783C-6; read-out: EC50): 22.9 nM |
| C/C=C1\NC(=O)[C@H]2CSSCC/C=C/[C@H](CC(=O)N[C@H](C(C)C)C(=O)N2)OC(=O)[C@H](C(C)C)NC1=O [Romidepsin, romidepsin] | limited efficacy | limited efficacy | markedly inhibited tumor growth | markedly inhibited tumor growth | markedly inhibited tumor growth | 83.4 | 74 | 3.96 | 115 | 5.5 | 2.55 | 3.8 | 3.4 | 2.5 | 2.8 | 3.1 | 2.9 | 38.8 | 11.4 | 2.9 | GI50 (HuCCT1 cells; HuCCT-1, HuCCT1, pretreated with peptide or NS for 12 h, then romidepsin 72 h, Fig. 5g): 93.5 nM; GI50 (783C-6 cells; 783C-6, romidepsin alone or combined with PFKL enzymatic activity modifier, Fig. 3b second table): 4.3 nM; GI50 (783C-6 cells; 783C-6, romidepsin alone or combined with glycolysis inhibitors, Fig. 3b first table): 3.49 nM; GI50 (783C-6 cells; [13]): 34.8 nM; GI50 (783C-6 cells; [14]): 15.3 nM; GI50 (1405R3 cells): 64.4 nM; PDX tumor growth compared to the control group (CC56 PDX tumors): no significant disparities; PDX tumor growth compared to the control group (CC51 PDX tumors): no significant disparities; PDX tumor growth compared to the control group (CC52 PDX tumors): notably attenuated the growth; PDX tumor growth compared to the control group (CC57 PDX tumors): notably attenuated the growth; PDX tumor growth compared to the control group (CC16 PDX tumors): notably attenuated the growth; PDX tumor growth compared to the control group (CC11 PDX tumors): notably attenuated the growth; AUC (1405R3): 228.5; DSS (1405R3): 26.8; MIN (1405R3): 0; EC50 (1405R3): 51.3 nM; AUC (783C-6): 354.8; DSS (783C-6): 43.7; MIN (783C-6): 0; EC50 (783C-6): 2.7 nM |
